This note sets out measurements from patent publication US5723461A, “Quinoxalines, a process for their preparation and their use” (Hoechst Aktiengesellschaft, priority 1994, dated 1998).

One experiment concerns HIV. Briefly: Testing of preparations against HIV in cell culture (T-cell culture assay). Format: cell-based. As to conditions: Human immunodeficiency virus 1, 72 h, HIV-infected lymphocytes, 3 days at 37° C., lowest concentration at which no giant cells occurred, read-out: MIC EC50. The protocol:
Testing of preparations against HIV in cell culture
Description of the method:
Complete medium additionally contains 20% fetal calf serum and 40 IU/ml recombinant interleukin 2.
Lymphocytes, which have been isolated from fresh donor blood by means of Ficoll® gradient centrifugation, are cultured, for 36 hours at 37° C. and under 5% CO2, in complete medium which additionally contains […] phytohemagglutinin (Wellcome). After 10% DMSO has been added, the cells are frozen at a cell density of 5×10^6 and stored in liquid nitrogen. For the experiment, the cells are thawed, washed in the RPMI medium and cultured for 3 to 4 days in the complete medium.
The test preparations were dissolved in DMSO at a concentration of 16.7 mg/ml, and these solutions were diluted with complete medium to a concentration of 1 mg/ml. 0.4 ml of medium was initially introduced into 24-well multiwell plates. After 0.1 ml of the dissolved preparation had been added to the upper row of the plate, a geometric dilution series was produced by transferring 0.1 ml on each occasion. Preparation-free controls contained 0.4 ml of complete medium containing 0.5% DMSO.
Lymphocyte cultures having a cell count of 5×10^5 cells/ml were infected by adding a 1/50 volume of the supernatant from HIV-infected lymphocyte cultures. The titer of these culture supernatants was determined by end-point dilution to be 1-5×10^6 infectious units/ml. After having been incubated at 37° C. for 30 min, the infected lymphocytes were centrifuged off and taken up once again in the same volume of medium. 0.6 ml of this cell suspension was added to each of the wells in the test plate. The assay mixtures were incubated at 37° C. for 3 days.
The infected cell cultures were examined under the microscope for the presence of giant cells, which are indicative of active viral replication in the culture. The lowest preparation concentration at which no giant cells occurred was determined and taken to be the inhibitory concentration against HIV. As a control, the supernatants from the culture plates were assayed for the presence of HIV antigen using an HIV antigen test in accordance with the manufacturer's (Organon) instructions.

Experiment [1] addresses T1, HIV reverse transcriptase (Human immunodeficiency virus type 1 group M subtype B, UniProt P04585).
T1 construct: purchased HT Biotechnology Ltd., Cambridge, UK; host or cells: E. coli
Briefly: Inhibition of HIV reverse transcriptase (scintillation proximity assay). Format: biochemical. As to conditions: Reverse transcriptase assay (SPA), 60 min, 37° C. On the procedure: Examination of the substances for their ability to inhibit HIV reverse transcriptase
The activity of the reverse transcriptase (RT) was determined using a scintillation proximity assay (SPA).
The reagent kit for the RT SPA was obtained from Amersham/Buchler (Braunschweig). The RT enzyme (derived from HIV and cloned in E. coli) was obtained from HT Biotechnology Ltd., Cambridge, UK.
The test was carried out in accordance with the manufacturer's (Amersham) methods manual, with the following modifications:
Bovine serum albumin was added to the assay buffer to a final concentration of 0.5 mg/ml.
The test was carried out in Eppendorf tubes using an assay mixture volume of 100 μl.
The manufacturer's RT concentrate (5000 U/ml) was diluted to an activity of 15 U per ml using 20 mM tris-HCl buffer, pH 7.2, 30% glycerol.
The assay mixtures were incubated for 60 min (37° C.).
After the reaction had been stopped and "developed" with the bead suspension, 130 μl of assay mixture were transferred into 4.5 ml of 10 mM tris-HCl buffer, pH 7.4, 0.15M NaCl and the tritium activity was measured in a β-counter.
In order to carry out a preliminary test of their inhibitory activity, the substances were dissolved in DMSO (stock solution, c=1 mg/ml) and tested when diluted 10^-1, 10^-2, 10^-3 etc. in DMSO.
In order to determine IC50 values, the stock solutions of inhibitor were further diluted in 50 mM tris-HCl buffer, pH 8, and tested at suitable concentrations.
The concentration associated with 50% inhibition of the enzyme was ascertained from the plot of RT activity against log Cinh.

Values after ≈ are worked out from the molar mass of the structure shown.

Take `CCC[C@H]1C(=S)Nc2ccc(OC)cc2N1C(=O)OC(C)C` [Example 100]: in the experiment with HIV, the EC50 turned out to be 4 ng/mL (≈ 0.0124 µM). In addition, the IC50 in experiment [1] was 49.6 nM.

For the compound `CSC[C@H]1C(=S)Nc2ccc(O)cc2N1C(=O)OC(C)C` [Example 140a], in the experiment with HIV, the EC50 turned out to be 40 ng/mL (≈ 0.123 µM). Further, in experiment [1], the IC50 is 285 nM.

As to `CSC[C@H]1C(=S)Nc2ccccc2N1C(=O)OC(C)C` [Example 90], the concentration giving a half-maximal response (EC50) with HIV is < 8 ng/mL. Moreover, the half-maximal inhibitory concentration (IC50) in experiment [1] was 16.1 nM.

For `COc1ccc2c(c1)N(C(=O)OC(C)C)[C@@H](CSC)C(=S)N2` [Example 85, S-4-Isopropoxycarbonyl-6-methoxy-3-(methylthiomethyl)-3,4-dihydroquinoxalin-2(1H)-thione], the EC50 with HIV was 2 ng/mL (≈ 0.00587 µM). This compound also had an IC50 in experiment [1] of 23.5 nM.

For the compound `C=CCOC(=O)N1c2cc(Cl)ccc2NC(=S)[C@@H]1CC` [Example 114], the 50% effective concentration (EC50) with HIV was 1.6 ng/mL (≈ 0.00515 µM). Moreover, in experiment [1], the IC50 was 22.5 nM.

Turning to `CCOC(=O)N1c2cc(F)ccc2NC(=O)[C@@H]1CC` [Example 78], the EC50 in the experiment with HIV was < 80 ng/mL. For the same compound, it took 300 nM to reach half-maximal inhibition in experiment [1] (IC50).

For `CSC[C@H]1C(=S)Nc2ccc(F)cc2N1C(=O)OC(C)C` [Example 98], the EC50 in the experiment with HIV was 3 ng/mL (≈ 0.00913 µM). Further, in experiment [1], inhibition was half-maximal at 36.5 nM (IC50).
